Test results as given in patent EP4796557A1, “POLYPEPTIDE, BIOACTIVE CONJUGATE, AND PREPARATION METHOD THEREFOR AND USE THEREOF” (priority 2023, dated 2025).
Square brackets hold non-standard residues; d marks the D form. Peptide text beside a SMILES is read from it. Cit = NC(=O)NCCC[C@H](N)C(=O)O

Columns and labels:
MMP2 = biological target: T1, MMP2 (Homo sapiens, UniProt P08253); assay: Enzymolysis assay of polypeptides by MMP2 (RP-HPLC); assay type: biochemical; conditions: test polypeptide 100 µmol, activated MMP2, 37°C, 4 h
T1 sequence (P08253 110-660): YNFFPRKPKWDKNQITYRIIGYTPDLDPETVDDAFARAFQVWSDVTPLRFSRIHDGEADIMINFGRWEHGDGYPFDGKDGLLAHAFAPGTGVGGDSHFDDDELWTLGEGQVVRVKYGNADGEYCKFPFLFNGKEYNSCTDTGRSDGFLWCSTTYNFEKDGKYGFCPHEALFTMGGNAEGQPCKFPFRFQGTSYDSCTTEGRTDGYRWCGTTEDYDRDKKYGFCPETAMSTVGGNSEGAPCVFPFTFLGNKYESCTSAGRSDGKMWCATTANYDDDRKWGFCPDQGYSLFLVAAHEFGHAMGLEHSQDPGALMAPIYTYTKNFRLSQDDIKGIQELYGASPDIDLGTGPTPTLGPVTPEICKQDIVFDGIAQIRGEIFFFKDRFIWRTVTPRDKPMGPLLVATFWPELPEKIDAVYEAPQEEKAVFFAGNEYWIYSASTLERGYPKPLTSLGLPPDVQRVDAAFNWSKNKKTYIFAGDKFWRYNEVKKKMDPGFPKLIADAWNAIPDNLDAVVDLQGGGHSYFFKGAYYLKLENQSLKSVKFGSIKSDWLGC
Description: (§1) First, MMP2 or MMP9 enzyme solution having a final concentration of 200 µg/mL was mixed with 4 mM APMA at a ratio of 1:1, placed in a 37°C water bath and incubated for 24 h to activate the MMP2 or MMP9 enzyme solution. Subsequently, the test polypeptide having a final concentration of 100 µmol was incubated with the activated MMP2 or MMP9 enzyme solution in a 37°C water bath for 4 h. After the reaction was complete, an equal volume of acetonitrile solution was added thereto, followed by RP-HPLC analysis.
(§2) The enzymolysis efficiency of the polypeptide was calculated based on the peak areas of the target peak before and after enzymolysis. The formula is as follows: Enzymolysis efficiency = […] [formula]

MMP9 = MMP9 (Homo sapiens, UniProt P14780); assay: Enzymolysis assay of polypeptides by MMP9 (RP-HPLC); assay type: biochemical; conditions: polypeptide 100 µmol with activated MMP9, 37°C, 4 h, RP-HPLC peak areas
Description: as §1, §2

Chain of MMP9 (P14780 107-707 limits assumed, species assumed): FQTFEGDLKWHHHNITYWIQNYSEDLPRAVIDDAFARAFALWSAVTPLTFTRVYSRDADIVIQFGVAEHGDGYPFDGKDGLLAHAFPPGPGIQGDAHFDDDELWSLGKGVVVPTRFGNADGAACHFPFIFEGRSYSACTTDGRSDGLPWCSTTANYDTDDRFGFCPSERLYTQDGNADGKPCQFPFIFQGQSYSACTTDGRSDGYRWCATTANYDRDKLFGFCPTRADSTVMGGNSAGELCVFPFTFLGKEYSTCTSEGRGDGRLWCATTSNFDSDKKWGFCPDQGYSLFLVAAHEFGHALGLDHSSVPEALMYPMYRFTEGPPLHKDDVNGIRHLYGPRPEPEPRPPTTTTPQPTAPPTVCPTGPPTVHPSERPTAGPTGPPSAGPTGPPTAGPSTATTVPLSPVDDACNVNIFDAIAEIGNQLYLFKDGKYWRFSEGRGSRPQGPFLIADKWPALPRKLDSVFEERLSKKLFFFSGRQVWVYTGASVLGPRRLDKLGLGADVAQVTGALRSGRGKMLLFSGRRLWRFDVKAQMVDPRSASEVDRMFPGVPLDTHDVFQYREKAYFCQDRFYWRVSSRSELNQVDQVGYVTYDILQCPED

Compound	Enzymolysis efficiency (%) (MMP2)	Enzymolysis efficiency (%) (MMP9)
CC(=O)NCC(=O)N1CCC[C@H]1C(=O)N[C@@H](CO)C(=O)NCC(=O)N[C@@H](CC(C)C)C(=O)N[C@H](C(=O)N[C@@H](CCCNC(N)=O)C(N)=O)C(C)C [Compound 1-P10] (Ac-GPSGLV[Cit]-NH2)	75.95	27.93
Ac-HVLNLGGFG-NH2 [Compound 1-P14]	11.78	4.86
CC[C@H](C)[C@H](NC(C)=O)C(=O)N1CCC[C@H]1C(=O)N[C@H](C(=O)N[C@@H](CO)C(=O)N[C@@H](CC(C)C)C(=O)N[C@H](C(=O)N[C@@H](CCCNC(N)=O)C(N)=O)C(C)C)C(C)C [Compound 1-P4] (Ac-IPVSLV[Cit]-NH2)	21.87	18.84
CC(=O)NCC(=O)N1CCC[C@H]1C(=O)N[C@@H](CCC(N)=O)C(=O)NCC(=O)N[C@@H](CC(C)C)C(=O)N[C@H](C(=O)N[C@@H](CCCNC(N)=O)C(N)=O)C(C)C [Compound 1-P8] (Ac-GPQGLV[Cit]-NH2)	54.71	29.30
CC(=O)N[C@H](C(=O)N1CCC[C@H]1C(=O)N[C@@H](CC(C)C)C(=O)N[C@@H](CO)C(=O)N[C@@H](CC(C)C)C(=O)N[C@H](C(=O)N[C@@H](CCCNC(N)=O)C(N)=O)C(C)C)C(C)C [Compound 1-P3] (Ac-VPLSLV[Cit]-NH2)	49.85	51.44
CC(=O)NCC(=O)N1CCC[C@H]1C(=O)N[C@@H](CC(C)C)C(=O)N[C@@H](CO)C(=O)N[C@@H](CC(C)C)C(=O)N[C@H](C(=O)N[C@@H](CCCNC(N)=O)C(N)=O)C(C)C [Compound 1-P5] (Ac-GPLSLV[Cit]-NH2)	52.03	54.80
CC(=O)NCC(=O)N1CCC[C@H]1C(=O)N[C@@H](CCCNC(=N)N)C(=O)NCC(=O)N[C@@H](CC(C)C)C(=O)N[C@H](C(=O)N[C@@H](CCCNC(N)=O)C(N)=O)C(C)C [Compound 1-P11] (Ac-GPRGLV[Cit]-NH2)	86.82	81.51
Ac-VPLSLGGFG-NH2 [Compound 1-P15]	40.90	33.25
CC(=O)NCC(=O)N1CCC[C@H]1C(=O)N[C@@H](C)C(=O)NCC(=O)N[C@@H](CC(C)C)C(=O)N[C@H](C(=O)N[C@@H](CCCNC(N)=O)C(N)=O)C(C)C [Compound 1-P7] (Ac-GPAGLV[Cit]-NH2)	90.29	25.55
CC(=O)N[C@@H](CO)C(=O)N1CCC[C@H]1C(=O)N[C@@H](CCCNC(=N)N)C(=O)N1CCC[C@H]1C(=O)N[C@@H](CC(C)C)C(=O)N[C@H](C(=O)N[C@@H](CCCNC(N)=O)C(N)=O)C(C)C [Compound 2-P20] (Ac-SPRPLV[Cit]-NH2)	52.52	57.87
CC(=O)N[C@@H](CO)C(=O)N1CCC[C@H]1C(=O)N[C@@H](CCCNC(=N)N)C(=O)N[C@@H](CO)C(=O)N[C@@H](CC(C)C)C(=O)N[C@H](C(=O)N[C@@H](CCCNC(N)=O)C(N)=O)C(C)C [Compound 2-P19] (Ac-SPRSLV[Cit]-NH2)	55.76	79.26
CC(=O)N1CCC[C@H]1C(=O)N[C@@H](CCCNC(=N)N)C(=O)N1CCC[C@H]1C(=O)N[C@@H](CC(C)C)C(=O)N[C@H](C(=O)N[C@@H](CCCNC(N)=O)C(N)=O)C(C)C [Compound 2-P4] (Ac-PRPLV[Cit]-NH2)	46.14	61.01
CC(=O)NCC(=O)N1CCC[C@H]1C(=O)N[C@@H](CC(C)C)C(=O)NCC(=O)N[C@@H](CC(C)C)C(=O)N[C@H](C(=O)N[C@@H](CCCNC(N)=O)C(N)=O)C(C)C [Compound 1-P9] (Ac-GPLGLV[Cit]-NH2)	81.75	68.34

Further lines, results first:

Enzymolysis efficiency (%) (MMP2)	Enzymolysis efficiency (%) (MMP9)	Compound
89.54	84.66	Ac-GPRGLGGFG-NH2 [Compound 1-P23]
54.65	58.33	CC(=O)N[C@@H](Cc1c[nH]cn1)C(=O)N1CCC[C@H]1C(=O)N[C@@H](CCCNC(=N)N)C(=O)N1CCC[C@H]1C(=O)N[C@@H](CC(C)C)C(=O)N[C@H](C(=O)N[C@@H](CCCNC(N)=O)C(N)=O)C(C)C [Compound 2-P14] (Ac-HPRPLV[Cit]-NH2)
68.38	9.10	Ac-GPASLGGFG-NH2 [Compound 1-P18]
40.95	45.82	CC(=O)NCC(=O)N1CCC[C@H]1C(=O)N[C@@H](CCCNC(N)=O)C(=O)N1CCC[C@H]1C(=O)N[C@@H](CC(C)C)C(=O)N[C@H](C(=O)N[C@@H](CCCNC(N)=O)C(N)=O)C(C)C [Compound 2-P11] (Ac-GP[Cit]PLV[Cit]-NH2)
86.03	93.84	CC(=O)N[C@@H](CO)C(=O)N1CCC[C@H]1C(=O)N[C@@H](CCCNC(=N)N)C(=O)NCC(=O)N[C@@H](CC(C)C)C(=O)N[C@H](C(=O)N[C@@H](CCCNC(N)=O)C(N)=O)C(C)C [Compound 2-P18] (Ac-SPRGLV[Cit]-NH2)
13.02	13.30	Ac-IPVSLGGFG-NH2 [Compound 1-P16]
61.03	68.91	CC(=O)N1CCC[C@H]1C(=O)N[C@@H](CCCNC(N)=O)C(=O)NCC(=O)N[C@@H](CC(C)C)C(=O)N[C@H](C(=O)N[C@@H](CCCNC(N)=O)C(N)=O)C(C)C [Compound 2-P5] (Ac-P[Cit]GLV[Cit]-NH2)
85.08	45.37	CC(=O)NCC(=O)N1CCC[C@H]1C(=O)N[C@@H](C)C(=O)N1CCC[C@H]1C(=O)N[C@@H](CC(C)C)C(=O)N[C@H](C(=O)N[C@@H](CCCNC(N)=O)C(N)=O)C(C)C [Compound 2-P25] (Ac-GPAPLV[Cit]-NH2)
42.87	48.98	CC(=O)N[C@@H](Cc1c[nH]cn1)C(=O)N1CCC[C@H]1C(=O)N[C@@H](CCCNC(N)=O)C(=O)N1CCC[C@H]1C(=O)N[C@@H](CC(C)C)C(=O)N[C@H](C(=O)N[C@@H](CCCNC(N)=O)C(N)=O)C(C)C [Compound 2-P17] (Ac-HP[Cit]PLV[Cit]-NH2)
36.21	36.08	CC(=O)N1CCC[C@H]1C(=O)N[C@@H](CCCNC(N)=O)C(=O)N1CCC[C@H]1C(=O)N[C@@H](CC(C)C)C(=O)N[C@H](C(=O)N[C@@H](CCCNC(N)=O)C(N)=O)C(C)C [Compound 2-P6] (Ac-P[Cit]PLV[Cit]-NH2)
37.27	27.26	Ac-GPLSLGGFG-NH2 [Compound 1-P17]
33.63	59.39	CC(=O)N[C@@H](CO)C(=O)N1CCC[C@H]1C(=O)N[C@@H](CCCNC(N)=O)C(=O)N[C@@H](CO)C(=O)N[C@@H](CC(C)C)C(=O)N[C@H](C(=O)N[C@@H](CCCNC(N)=O)C(N)=O)C(C)C [Compound 2-P23] (Ac-SP[Cit]SLV[Cit]-NH2)
53.20	79.34	CC(=O)N1CCC[C@H]1C(=O)N[C@@H](CCCNC(=N)N)C(=O)N[C@@H](CO)C(=O)N[C@@H](CC(C)C)C(=O)N[C@H](C(=O)N[C@@H](CCCNC(N)=O)C(N)=O)C(C)C [Compound 2-P2] (Ac-PRSLV[Cit]-NH2)
90.43	75.60	Ac-GPLGLGGFG-NH2 [Compound 1-P21]
89.82	29.28	Ac-GPAGLGGFG-NH2 [Compound 1-P19]
57.42	81.06	CC(=O)N[C@@H](Cc1c[nH]cn1)C(=O)N1CCC[C@H]1C(=O)N[C@@H](CCCNC(=N)N)C(=O)N[C@@H](CO)C(=O)N[C@@H](CC(C)C)C(=O)N[C@H](C(=O)N[C@@H](CCCNC(N)=O)C(N)=O)C(C)C [Compound 2-P13] (Ac-HPRSLV[Cit]-NH2)
80.31	93.67	CC(=O)N1CCC[C@H]1C(=O)N[C@@H](CCCNC(=N)N)C(=O)NCC(=O)N[C@@H](CC(C)C)C(=O)N[C@H](C(=O)N[C@@H](CCCNC(N)=O)C(N)=O)C(C)C [Compound 2-P1, PRGLVCit] (Ac-PRGLV[Cit]-NH2)
63.27	94.69	CC(=O)N[C@@H](Cc1c[nH]cn1)C(=O)N1CCC[C@H]1C(=O)N[C@@H](CCCNC(=N)N)C(=O)N[C@@H](CC(N)=O)C(=O)N[C@@H](CC(C)C)C(=O)N[C@H](C(=O)N[C@@H](CCCNC(N)=O)C(N)=O)C(C)C [Compound 2-P15] (Ac-HPRNLV[Cit]-NH2)
